Test results as given in patent US8105567B2, “Multidentate AZA ligands able to complex metal ions and the use thereof in diagnostics and therapy” (Bracco Imaging SpA, priority 2001, dated 2012).
Each block holds one compound with its values, some of them ahead of it.

Experiments:
[1] = Affinity for lactate ions (titration of 1 mM Gd(III) complex, ternary complex formation); type: physicochemical; conditions: for KA (association constant) with lactate ions: titration with lactate ions
Method: (§1) A test, to further evaluate the lack of formation of ternary complexes was performed. As a non-limiting example, we measured the affinity of the compound of example 1 for lactate and phosphate ions. The determination was performed directly by adding increasing amounts of each anion to a 1 mM solution of the Gd(III) complex.
Conversely analogous titrations of Gd-DO3A and Gd-DO3MA (both endowed with q=2) with lactate ions yielded KA values of 150 M^−1 and 110 M^−1, respectively.

[2] = Potentiometric measurements: protonation constants of the ligand; type: physicochemical; conditions: 0.1 mol dm^−3 NMe4NO3, 298.1 K
Method: (§2) All the pH metric measurements (pH=−log [H^+]) were carried out in degassed 0.1 mol dm^−3 NMe4NO3 solutions, at 298.1 K, by using a Metrohm 670 Titroprocessor equipped with a Metrohm 6.0203.100 combined pH electrode. Prior to each potentiometric titration, the combined Metrohm electrode was calibrated as a hydrogen concentration probe by titrating known amounts of HCl with CO2-free NMe4OH solutions and determining the equivalent point by the Gran's method which allows to determine the standard potential E^o, and the ionic product of water. In the complexation experiments the metal ion concentration was about 80% of the ligand concentration. At least three measurements (about 100 data points each one) were performed for each system in the pH range 2.5-10.5 and the relevant e.m.f. data were treated by means of the computer programs […] and […] which furnished the protonation and the complexation constants.

PC-3 tumors = assay: Biodistribution and tumor targeting of 177Lu complexes in the human PC-3 nude mouse model; type: in vivo; conditions: 177Lu complex
Method: For biodistribution studies, the radiolabeled compounds were prepared as described above except that a 1:1 molar ratio of ligand to Lutetium was used to guarantee complete chelation of all starting ligand. […] The remaining solution was further diluted to the required radioconcentration using Bacteriostatic saline/ASCOR L500® Ascorbic Acid Injection USP mixed in a 9 to 1 [v/v]) ratio.
10-50 μCi of the HPLC purified compounds were administered to each mouse by i.v. tail vein injection, n=4 per group. At 1 h, 1 and 7 days post injection, the mice were terminated and the organs and tissues were harvested. Radioactivity was assayed in a gamma counter. The data was expressed as percentage of the total administered radioactivity (% ID) for the urine combined with the bladder, as well as for the blood pool; and percentage of the total administered radioactivity per gram (% ID/g) for all the other tested organs

[3] = NMRD profile fitting (molecular reorientational time); type: physicochemical; conditions: calculated from fitting of the NMRD profile
[4] = Affinity for phosphate ions (titration of 1 mM Gd(III) complex, ternary complex formation); type: physicochemical; conditions: increasing amounts of anion added to 1 mM complex, FIG. 4
Method: as §1

[5] = Potentiometric measurements: Gd complexation constant; type: physicochemical
Method: as §2

[6] = Exchange time (tM) by transverse water 17O NMR relaxation time at variable temperature; type: physicochemical; conditions: 298 K
Text: The exchange time (tM) value of the Gd(III) complex of the example 1 has been assessed by measuring the transverse water ^17O NMR relaxation time at variable temperature according to the procedure described by Aime et al., in the above cited literature.
Obtained value turned out to be 90 ns at 298 K. Albeit the optimal value (about 30 ns) has not been attained, this exchange rate can be considered quite fast, especially if compared with that of (Gd-DO3A), the Gd(III) complex of reference, with two water molecules in the inner sphere, whose tM value is 160 ns.

[7] = Relaxivity as a function of the pH; type: physicochemical; conditions: FIG. 3
Text: The relaxivity of this complex was further tested as a function of the pH.

[8] = Relaxivity of the Gd(III) complex; type: physicochemical; conditions: 25° C., pH 7 and 20 MHz
Method: The relaxivity determined at 25° C., pH 7 and 20 MHz for said complex is 7.1 mM^−1 s^−1.

[9] = reference complex with two water molecules in the inner sphere; cited from earlier work

Compound: CC(C(=O)[O-])N1CCNCCN(C(C)C(=O)[O-])CCN(C(C)C(=O)[O-])CC1.[Gd+3] (stereo not drawn) [Gd-DO3MA, reference compound]
KA (association constant) with lactate ions [1]: 110 M⁻¹

Compound: CC1(N(CC(=O)O)CC(=O)O)CN(CC(=O)O)[C@@H]2CCCC[C@H]2N(CC(=O)O)C1 [Compound 94]
clearance of Lu-177 from the body (in words) (PC-3 tumors; PC-3 nude mouse): rapidly cleared from the body with little residual localization in any organs or tissue
Blood 1 h % ID (PC-3 tumors; i.v., 1 h post injection, blood): 0.39 ± 0.29 % ID
Blood 24 h % ID (PC-3 tumors; i.v., 24 h post injection, blood): 0.01 ± 0.01 % ID
Blood 7 d % ID (*72 h timepoint) (PC-3 tumors; i.v., 72 h timepoint, blood): 0.00 ± 0.00 % ID

Compound: O=C([O-])CN1CCNCCN(CC(=O)[O-])CCN(CC(=O)[O-])CC1.[Gd+3] [Gd-DO3A, reference compound]
KA (association constant) with lactate ions [1]: 150 M⁻¹
tM value (reference complex) [9]: 160 ns

The next lines start with results.

Log KH ([2]; H2L + H = H3L): 4.09 (3)
Log KH ([2]; H3L + H = H4L): 2.60 (3)
Log KH ([2]; H4L + H = H5L): 1.44 (4)
Log KH ([2]; H + L = HL): 11.80 (2)
Log KH ([2]; HL + H = H2L): 6.55 (2)
Compound: CC1(N(CC(=O)O)CC(=O)O)CN(CC(=O)O)CCN(CC(=O)O)C1 [Example 1, 1,4-Bis(carboxymethyl)-6-[bis(carboxymethyl)amino]-6-methyl-perhydro-1,4-diazepine]

tR (molecular reorientational time) [3]: 80 ps
LogKGd ([5]; M + L = ML, 0.1 mol dm^−3 NMe4NO3, 298.1 K): 21.52 (1)
LogKGd (conditional, pH 7.4) ([5]; conditional, pH 7.4): LogKGd (conditional, pH 7.4) = 17.06
relaxation rate over the investigated pH range [7]: substantially constant
relaxivity [8]: 7.1 mM⁻¹ s⁻¹
Compound: Gd(III) Complex of 1,4-Bis(carboxymethylmethyl)-6-[bis(hydroxycarbonyl-methyl)amino]-6-methylperhydro-1,4-diazepine [Gd(III) complex of Example 1]
interaction with lactate ions ([1]; increasing amounts of anion added to 1 mM complex, FIG. 4): complete absence of interaction
KA (association constant) with lactate ions [1]: does not show any measurable association constant
interaction with phosphate ions [4]: complete absence of interaction
exchange time (tM) [6]: 90 ns
